Laboratory results taken from publication PMC2909451 (European journal of pharmaceutical sciences : official …, 2010).
Structures can show the parent of a compound that is named as a salt. Where two headings read alike, the source gives them in different places.

What was measured:
[1] = target: T1, human apical sodium-dependent transporter (SLC10A2, ASBT) (Homo sapiens, UniProt Q12908)
T1 sequence (Q12908 1-348): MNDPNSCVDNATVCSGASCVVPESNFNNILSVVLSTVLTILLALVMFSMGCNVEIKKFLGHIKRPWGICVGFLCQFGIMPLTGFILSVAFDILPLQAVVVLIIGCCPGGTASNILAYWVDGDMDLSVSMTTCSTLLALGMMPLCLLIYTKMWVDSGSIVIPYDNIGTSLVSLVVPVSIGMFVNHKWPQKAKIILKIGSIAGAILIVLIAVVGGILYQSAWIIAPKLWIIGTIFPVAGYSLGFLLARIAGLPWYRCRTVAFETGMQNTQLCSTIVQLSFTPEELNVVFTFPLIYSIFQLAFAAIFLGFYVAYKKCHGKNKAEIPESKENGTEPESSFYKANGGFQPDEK

[2] = target: T1, human apical sodium-dependent transporter (SLC10A2, ASBT); test: ASBT cis-inhibition of taurocholate uptake in ASBT-MDCK cells; conditions: for potency estimated from few doses: read-out: Ki estimated from one concentration; for inhibition at 200 µM / inhibition at 1000 µM / inhibition at 10 µM / inhibition at 25 µM / inhibition at 5000 µM / inhibition at 5 µM: read-out: percent taurocholate inhibited at the highest inhibitor concentration
[3] = Ki, inhibitor concentration range 0-50 μM, mean±S.E.
[4] = Ki, inhibitor concentration range 0-100 μM, mean±S.E.
[5] = Ki, inhibitor concentration range 0-200 μM, mean±S.E.
[6] = Ki, inhibitor concentration range 0-500 μM, mean±S.E.
[7] = Ki, inhibitor concentration range 0-1000 μM, mean±S.E.
[8] = Reference Ki, from the comprehensive inhibition profile
[9] = Ki, inhibitor concentration range 0-25 μM, mean±S.E.
[10] = Ki, inhibitor concentration range 0-5000 μM, mean±S.E.
[11] = Ki, inhibitor concentration range 0-5 μM, mean±S.E.
[12] = Ki, inhibitor concentration range 0-10 μM, mean±S.E.
[13] = Ki, inhibitor concentrations 0, 25 μM (Table 2), mean±S.E.

Compound	inhibition ([1]; 50 µM)	inhibition ([1]; 100 µM)	inhibition ([1]; 500 µM)	Ki [2, 3]	Ki [2, 4]	Ki [2, 5]	Ki [2, 6]	Ki [2, 7]	Ki [2, 8]	potency estimated from few doses [2]	inhibition at 200 µM [2]	inhibition at 1000 µM [2]	Ki [2, 9]	inhibition at 10 µM [2]	inhibition at 25 µM [2]	further results
CN1CCCCC1CCN1c2ccccc2Sc2ccc([S+](C)[O-])cc21 (centres unmarked) [Mesoridazine besylate]	31.3%	52.5%	79.8%	69.9 ± 19.5 µM	59.6 ± 9.9 µM	63.6 ± 8.2 µM	64.9 ± 7.3 µM	63.5 ± 6.6 µM	63.5 µM	59.5 ± 7.3 µM	62.2%	94%				
Cc1c(OCC(F)(F)F)ccnc1C[S+]([O-])c1nc2ccccc2[nH]1 (centres unmarked) [Lansoprazole]	29.5%	39.4%	73.6%	62.1 ± 11.3 µM	86.9 ± 14.7 µM	134 ± 25 µM	132 ± 19 µM	120 ± 16 µM	120 µM	116 ± 2 µM	44.4%	91.9%	40.9 ± 7.09 µM	5.99%	30.2%	Ki ([2]; Ki, inhibitor concentrations 0, 10 μM (Table 4), mean±S.E.): 103 ± 37 µM
NS(=O)(=O)c1cc2c(cc1C(F)(F)F)NC(Cc1ccccc1)NS2(=O)=O (centres unmarked) [Bendroflumethiazide, bendroflumethiazide]	30.5%	37.6%	63.6%	84.3 ± 20.7 µM	96.4 ± 16.2 µM	121 ± 18 µM	144 ± 20 µM	149 ± 18 µM	149 µM	188 ± 21 µM	46.6%	79.4%	166 ± 115 µM		8.86%	
CCCCNc1cc(C(=O)O)cc(S(N)(=O)=O)c1Oc1ccccc1 [Bumetanide, bumetanide]	12.2%	15.6%	48%	232 ± 60 µM	343 ± 75 µM	299 ± 33 µM	338 ± 28 µM	341 ± 22 µM	341 µM	354 ± 35 µM	32.1%	65.6%	211 ± 108 µM		7.1%	
CC(C(=O)O)c1cccc(C(=O)c2ccccc2)c1 (centres unmarked) [Ketoprofen, ketoprofen]			49.7%			255 ± 14 µM	305 ± 26 µM	328 ± 24 µM	310 µM	336 ± 26 µM	34.2%	64.7%				Ki [2, 10]: 310 ± 28 µM; inhibition at 5000 µM [2]: 98%
COCc1c(C(C)C)nc(C(C)C)c(/C=C/[C@@H](O)C[C@@H](O)CC(=O)O)c1-c1ccc(F)cc1 [Cerivastatin, cerivastatin]										47.4 ± 22.5 µM						
O=C(O)C[C@H](O)C[C@H](O)/C=C/c1c(C2CC2)nc2ccccc2c1-c1ccc(F)cc1 [Pitavastatin]	36.5%	52.4%	78.6%	59.8 ± 7.5 µM	60.9 ± 5.3 µM	64.9 ± 4.8 µM	67.6 ± 4.8 µM		67.6 µM	56.1 ± 4.4 µM	64.6%		54.1 ± 10.9 µM	14.4%	22.7%	Ki [2, 11]: 27.9 ± 7.3 µM; Ki [2, 12]: 29.7 ± 5.9 µM; inhibition at 5 µM [2]: 10.4%
COc1ccc([C@@H]2Sc3ccccc3N(CCN(C)C)C(=O)[C@@H]2OC(C)=O)cc1 [Diltiazem hydrochloride, diltiazem hydrochloride]	19.5%	26.5%	52.4%	124 ± 16 µM	174 ± 26 µM	221 ± 28 µM	273 ± 30 µM	301 ± 28 µM	301 µM	296 ± 22 µM	36.4%	66.1%			16%	Ki [2, 13]: 86.4 ± 11.9 µM
CN1CCN(CC/C=C2/c3ccccc3Sc3ccc(S(=O)(=O)N(C)C)cc32)CC1 [Thiothixene, thiothixene]			25.7%			1030 ± 344 µM	913 ± 115 µM	1110 ± 136 µM	917 µM	905 ± 105 µM	34.6%	11%				Ki [2, 10]: 917 ± 111 µM; inhibition at 5000 µM [2]: 83.3%
CC(C)n1c(/C=C/C(O)CC(O)CC(=O)O)c(-c2ccc(F)cc2)c2ccccc21 (centres unmarked) [Fluvastatin, fluvastatin]	52.6%	77%	95.5%	27.4 ± 2 µM	24.9 ± 1.9 µM	25.1 ± 1.6 µM	24.9 ± 1.6 µM	24.8 ± 1.4 µM	24.8 µM	29.7 ± 2.4 µM	82.9%	96.2%	24.5 ± 2.4 µM		40.2%	Ki [2, 10]: 24.8 ± 1.3 µM; inhibition at 5000 µM [2]: 99.8%
N=C(N)c1ccc(OCCCCCOc2ccc(C(=N)N)cc2)cc1 [Pentamidine Isethionate, pentamidine isethionate]	10.7%	27.9%	62.8%	253 ± 126 µM	189 ± 40 µM	147 ± 23 µM	164 ± 20 µM	174 ± 19 µM	174 µM	194 ± 27 µM	52.7%	74.4%			10.9%	Ki [2, 13]: 134 ± 82 µM
Clc1ccc(C(Cn2ccnc2)OCc2ccsc2Cl)c(Cl)c1 (centres unmarked) [Tioconazole, tioconazole]	47.7%	63.7%	87.1%	32.7 ± 4.7 µM		33.7 ± 3.1 µM	33.6 ± 2.8 µM	34.1 ± 2.7 µM	34.1 µM	33 ± 6.2 µM	74%	87.2%	32.3 ± 6.3 µM		32.2%	Ki ([2]; inhibitor concentration range 0-100 μM, mean±S.E.): 32.8 ± 3.6 µM
COC(=O)C1=C(C)NC(C)=C(C(=O)OC(C)C)C1c1cccc2nonc12 (centres unmarked) [Isradipine, isradipine]	49.7%	68.1%		42.7 ± 7.4 µM	38.8 ± 5.1 µM	36.4 ± 4.2 µM			36.4 µM	32.7 ± 2.7 µM	82.5%		60.4 ± 19.6 µM	12.1%	25.7%	Ki [2, 11]: 17.5 ± 6.6 µM; Ki [2, 12]: 53.4 ± 35.1 µM; Ki ([2]; Ki, inhibitor concentration range 0-[…], mean±S.E.): 9.55 ± 3.67 µM; inhibition at 5 µM [2]: 14.4%
CC(C)(C#N)c1cc(Cn2cncn2)cc(C(C)(C)C#N)c1 [Anastrozole]	12%	13.2%	35.6%	231 ± 87 µM	451 ± 163 µM	700 ± 196 µM	686 ± 99 µM	745 ± 74 µM	745 µM	601 ± 69 µM	18%	48.3%			9.73%	Ki [2, 13]: 153 ± 79 µM
CCCCOc1cc(C(=O)NCCN(CC)CC)c2ccccc2n1 [Dibucaine hydrochloride, dibucaine hydrochloride]	27.6%	43.8%	73.7%	93.2 ± 12.5 µM	85.8 ± 7.6 µM	96.2 ± 7.7 µM	101 ± 7 µM	101 ± 6 µM	101 µM	116 ± 3 µM	53.9%	86.7%			10.5%	Ki [2, 13]: 140 ± 17 µM
CC(C)c1nc(N(C)S(C)(=O)=O)nc(-c2ccc(F)cc2)c1/C=C/[C@@H](O)C[C@@H](O)CC(=O)O [Rosuvastatin]	19.4%	37.8%	71%	148 ± 33 µM	118 ± 15 µM	115 ± 10 µM	117 ± 8 µM		117 µM	123 ± 11 µM	53.3%			11.7%	8.9%	Ki [2, 12]: 46.7 ± 14.4 µM; Ki ([2]; Ki, inhibitor concentrations 0, 5 μM (Table 2), mean±S.E.): 196 ± 423 µM; Ki [2, 13]: 147 ± 67 µM; inhibition at 5 µM [2]: 1.54%
CC(C)OC(=O)CCC/C=C\C[C@@H]1[C@@H](CC[C@@H](O)CCc2ccccc2)[C@H](O)C[C@@H]1O [Latanoprost, latanoprost]	60.3%	79.4%	96.2%	15.1 ± 2.4 µM	14.3 ± 2 µM	13.6 ± 1.9 µM	13.3 ± 1.9 µM		13.3 µM	17.3 ± 2.7 µM	90%		14 ± 2.8 µM	34.3%	46.9%	Ki [2, 11]: 19.3 ± 6.7 µM; Ki [2, 12]: 12.2 ± 2.9 µM; inhibition at 5 µM [2]: 28.1%
COc1ccc2c(c1)c(CC(=O)O)c(C)n2C(=O)c1ccc(Cl)cc1 [Indomethacin, indomethacin]	27.3%	46.8%	76.4%	80.5 ± 13.7 µM	77.9 ± 8.4 µM	84.2 ± 7.3 µM	87.8 ± 6.8 µM	86.4 ± 6 µM	86.4 µM	86.9 ± 12.5 µM	59.1%	89.5%	53.9 ± 8.9 µM	11%	23.2%	Ki [2, 12]: 52.6 ± 13.6 µM
